Measurements reported in PubChem BioAssay (NCI).
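Tested at 5 concentrations; 48 h exposure; 96-well plates; endpoints linearly interpolated, else capped at highest concentration. GI50 is the concentration that inhibits growth by half. TGI: concentration producing complete growth inhibition.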

Experiments:
Experiment in all cases: inhibition of tumour cell growth, NCI panel, 48 h
HOP-62 NSCLC = system: HOP-62 NSCLC
OVCAR-4 ovarian = system: OVCAR-4 ovarian
OVCAR-8 ovarian = system: OVCAR-8 ovarian
EKVX NSCLC = system: EKVX NSCLC
SK-MEL-5 melanoma = system: SK-MEL-5 melanoma
U251 CNS = system: U251 CNS
UACC-257 melanoma = system: UACC-257 melanoma
HCT-116 colon = system: HCT-116 colon
OVCAR-5 ovarian = system: OVCAR-5 ovarian
M14 melanoma = system: M14 melanoma

Row | Structure (SMILES) | GI50 (HOP-62 NSCLC) | TGI (HOP-62 NSCLC) | GI50 (OVCAR-4 ovarian) | TGI (OVCAR-4 ovarian) | GI50 (OVCAR-8 ovarian) | TGI (OVCAR-8 ovarian) | GI50 (EKVX NSCLC) | TGI (EKVX NSCLC) | GI50 (SK-MEL-5 melanoma) | TGI (SK-MEL-5 melanoma) | GI50 (U251 CNS) | TGI (U251 CNS) | GI50 (UACC-257 melanoma) | TGI (UACC-257 melanoma) | GI50 (HCT-116 colon) | TGI (HCT-116 colon) | GI50 (OVCAR-5 ovarian) | TGI (OVCAR-5 ovarian) | GI50 (M14 melanoma) | TGI (M14 melanoma)
1 | CCC(=O)Nc1ccc(C)c(-c2ccc(C(=O)NCC3CC3)cc2)c1 | > 25 µM | > 25 µM | > 24.1 µM | > 25 µM | > 25 µM | > 25 µM | > 25 µM | > 25 µM | > 25 µM | > 25 µM | > 25 µM | > 25 µM | > 25 µM | > 25 µM | > 25 µM | > 25 µM | > 25 µM | > 25 µM | > 25 µM | > 25 µM
2 | O=C(Nc1cccc(-c2ccc(Cl)c(C(F)(F)F)c2)c1)C1CCN(Cc2cccc3cccnc23)CC1 | 1.85 µM | 3.74 µM | 1.59 µM | 3.08 µM | 1.93 µM | 4.19 µM | 1.73 µM | 3.15 µM | 1.53 µM | 2.89 µM | 1.71 µM | 3.29 µM | 1.83 µM | 3.62 µM | 1.26 µM | 2.76 µM | 1.57 µM | 2.92 µM | 1.64 µM | 3.16 µM
3 | C/C(O)=C(\C#N)C(=O)Nc1ccc(C(F)(F)F)cc1 | 77.9 µM | > 100 µM | 91 µM | > 100 µM | 13.5 µM | > 100 µM | – | – | 15.9 µM | > 100 µM | 5.34 µM | > 100 µM | > 100 µM | > 100 µM | 7.5 µM | > 100 µM | > 100 µM | > 100 µM | 52.5 µM | > 100 µM
4 | COc1cc(C2=N/C(=C/c3cccs3)C(=O)O2)cc(OC)c1OC | – | > 100 µM | – | > 100 µM | – | > 100 µM | – | > 100 µM | – | > 100 µM | – | > 100 µM | – | > 100 µM | – | > 100 µM | – | > 100 µM | – | > 100 µM
5 | Cc1ccc(C(=O)/C(=C\c2ccc([N+](=O)[O-])cc2)S(=O)Cc2ccc(Cl)cc2)cc1 (centres undefined) | 2.39 µM | 6.21 µM | 1.85 µM | 3.85 µM | 2.05 µM | 5.13 µM | 1.88 µM | 4.02 µM | 1.69 µM | 3.23 µM | 1.56 µM | 3 µM | 1.89 µM | 3.89 µM | 1.43 µM | 2.92 µM | 1.97 µM | 3.91 µM | 1.65 µM | 3.19 µM
6 | Cc1cccc(C(C)(C)C)c1NC(=O)CCc1nc(=S)[nH][nH]1 | – | > 100 µM | – | > 100 µM | – | > 100 µM | – | – | – | > 100 µM | – | > 100 µM | – | > 100 µM | – | > 100 µM | – | > 100 µM | – | > 100 µM
7 | CCOC(=O)c1cnc2c(ccc3ncccc32)c1NCCCN(CC)CC | – | > 100 µM | – | > 100 µM | – | – | – | > 100 µM | – | > 100 µM | – | > 100 µM | – | > 100 µM | – | – | – | > 100 µM | – | 35.1 µM
8 | CC(=O)O[C@@]1(C)[C@@H](C)C(=O)O[C@@H]2CCN3CC=C(COC(=O)[C@]1(C)O)[C@H]23 | – | > 100 µM | – | > 100 µM | – | > 100 µM | – | – | – | > 100 µM | – | > 100 µM | – | > 100 µM | – | > 100 µM | – | > 100 µM | – | > 100 µM
